Test system: U373 MG
Assay: Antimitotic activity against human glioma line U-373 cell by measuring the incorporation of [3H]thymidine in cultures of the cells
Format: functional, cell-based, U-373MG ATCC

CCCCCCCCO[C@H]1O[C@@H](COCC(CO)(CO)CO)[C@@H](O)[C@H](O)[C@@H]1NC(C)=O
IC50: 43 µM
